The subject of one assay is A549. Put plainly: cells. The arrangement: MTT antiproliferative assay, absorbance at 570 nm, monolayer cancer cells. The following applies: Homo sapiens, 72 h, MTT, read-out: IC50 (µM) / Mean ± SEM / A549. An excerpt:
(§1) MTT (3-(4,5-dimethylthiazol-2-yl)-2,5-diphenyltetrazolium bromide) assay was applied to evaluate the antiproliferative effects of synthetic compounds against cancer and normal cell lines as previously described ([Damghani et al., 2021]). The MTT assay is based on the reduction function of NAD(P)H-dependent cellular oxidoreductase enzymes on yellow tetrazolium dye MTT to its insoluble formazan, which has a purple color and reflects the number of viable cells. Cancer and non-cancer cells were seeded in 96-well flat bottom plates at different densities of 1.5 × 10^4 (HT-29), 3 × 10^4 (A549 and U-87MG), 4 × 10^4 (EBC-1). Synthetic compounds were first dissolved in DMSO and then diluted in growth medium. After 24 h the attached cells were exposed to 100 µL of 3-4 different concentrations of synthesized derivatives in triplicate manner and incubated for an additional 72 h at 37°C. In addition, 3–4 different concentrations of reference compounds were added to wells. To perform the MTT assay the media was discarded from each well and MTT solution in phosphate-buffered saline at a concentration of 0.5 mg/ml was added to all wells. Then, plates were incubated at 37°C for 4 h to allow formation of formazan crystals. Afterwards, crystals were dissolved in 200 μL DMSO, shake on an orbital shaker for 30 min and absorbance was measured at a wavelength of 570 nm with background correction at 650 nm using a Bio-Tek microplate reader (Model Synergy HTX). Finally, IC50 values for each compound was calculated with CurveExpert software version 1.4 for windows. Each experiment was repeated 3–5 times. EBC-1 (human lung adenocarcinoma cells) were obtained from Japanese Collection of Research Bio Resources Cell Bank (JCRB). A549 (human lung adenocarcinoma cells), HT-29 (Human colorectal adenocarcinoma cells) and U-87MG (human primary glioblastoma cells) were obtained from Iranian Biological Resource Centre, Tehran, Iran. EBC-1 cells were cultured in RPMI 1640 medium containing 10% heat-inactivated fetal bovine serum (FBS) and 1% penicillin/streptomycin. A549, HT-29 and U-87MG cells were grown in DMEM low glucose, containing 10% heat-inactivated FBS and 1% penicillin/streptomycin. All cells were grown in monolayer culture at 37°C in a humidified incubator with 5% CO2. We employed the MTT assay in order to investigate the antiproliferative effects of the synthetic compounds against four different cancer cell lines, including lung cancer cell lines EBC-1 (with MET amplification) and A549, the human colorectal cancer cells HT-29, as well as the human glioblastoma cell line U-87MG.

The subject of a further assay is EBC-1. Put plainly: cells. To be noted: Homo sapiens, 72 h, MTT, read-out: IC50 (µM) / Mean ± SEM / EBC-1. Details: MTT antiproliferative assay, absorbance at 570 nm, monolayer cancer cells.
Text: as §1

A further assay relates to HT-29. Put plainly: cells. Details: MTT antiproliferative assay, absorbance at 570 nm, monolayer cancer cells. The following applies: Homo sapiens, 72 h, MTT, read-out: IC50 (µM) / Mean ± SEM / HT29.
Text: as §1

Another assay deals with U-87MG. Briefly: cells. The arrangement: MTT antiproliferative assay, absorbance at 570 nm, monolayer cancer cells. The following applies: Homo sapiens, 72 h, MTT, read-out: IC50 (µM) / Mean ± SEM / U-87MG.
Text: as §1

For the next assay, the target named is AXL (Homo sapiens, UniProt P30530). Put plainly: radiometric kinase panel, % inhibition at […]. It counts as biochemical.
Another assay concerns the target FLT4 (VEGFR3) (Homo sapiens, UniProt P35916). Briefly: radiometric kinase assay (Eurofins), concentration-effect curve. In kind it is biochemical.
The next assay addresses FLT1 (VEGFR1) (Homo sapiens, UniProt P17948). Put plainly: radiometric kinase panel, % inhibition at […]. It counts as biochemical.
In another assay the target is FGFR1 (Homo sapiens, UniProt P11362). Put plainly: radiometric kinase panel, % inhibition at […]. In kind it is biochemical.
For another assay, the target named is MET kinase (Homo sapiens, UniProt P08581). Put plainly: HTRF kinase assay; confirmed by radiometric assay. In kind it is biochemical.
For the next assay, the target named is ALK (Homo sapiens, UniProt Q9UM73). Put plainly: radiometric kinase panel, % inhibition at […]. In kind it is biochemical.
The target of the next assay is 1) ABL1(h) (Homo sapiens, UniProt P00519). Briefly: biochemical. Details: Radiometric kinase activity assay, percent inhibition, Eurofins Cerep. The following applies: read-out: Kinase inhibition (%) ^a / 10 µM. Here is the method:
(§2) Kinase inhibition profile was examined by Kinase Radiometric Assays for 18 different oncogenic kinases (Eurofins Cerep, Celle l'Evescault, France). In order to investigate the activity of compound CM9, as the most promising agent in this series, against other oncogenic kinases, we further assessed this derivative against a panel of 18 other protein kinases using a radiometric assay at the concentrations of 10 and/or 25 μM (Table 4).

A further assay deals with 10) KDR (VEGFR2) (h) (Homo sapiens, UniProt P35968). Briefly: biochemical. Details: Radiometric kinase activity assay, percent inhibition, Eurofins Cerep. To be noted: read-out: Kinase inhibition (%) ^a / 10 µM. Here is the method:
as §2

For another assay, the target named is 11) MAPK3 (ERK1) (h) (Homo sapiens, UniProt P27361). Briefly: biochemical. The arrangement: Radiometric kinase activity assay, percent inhibition, Eurofins Cerep. To be noted: read-out: Kinase inhibition (%) ^a / 10 µM. Here is the method:
as §2

The next assay deals with 13) MET(h) (Homo sapiens, UniProt P08581). Put plainly: biochemical. The arrangement: Radiometric kinase activity assay, percent inhibition, Eurofins Cerep. The protocol: as §2
13) MET(h), sequence (P08581 whole entry): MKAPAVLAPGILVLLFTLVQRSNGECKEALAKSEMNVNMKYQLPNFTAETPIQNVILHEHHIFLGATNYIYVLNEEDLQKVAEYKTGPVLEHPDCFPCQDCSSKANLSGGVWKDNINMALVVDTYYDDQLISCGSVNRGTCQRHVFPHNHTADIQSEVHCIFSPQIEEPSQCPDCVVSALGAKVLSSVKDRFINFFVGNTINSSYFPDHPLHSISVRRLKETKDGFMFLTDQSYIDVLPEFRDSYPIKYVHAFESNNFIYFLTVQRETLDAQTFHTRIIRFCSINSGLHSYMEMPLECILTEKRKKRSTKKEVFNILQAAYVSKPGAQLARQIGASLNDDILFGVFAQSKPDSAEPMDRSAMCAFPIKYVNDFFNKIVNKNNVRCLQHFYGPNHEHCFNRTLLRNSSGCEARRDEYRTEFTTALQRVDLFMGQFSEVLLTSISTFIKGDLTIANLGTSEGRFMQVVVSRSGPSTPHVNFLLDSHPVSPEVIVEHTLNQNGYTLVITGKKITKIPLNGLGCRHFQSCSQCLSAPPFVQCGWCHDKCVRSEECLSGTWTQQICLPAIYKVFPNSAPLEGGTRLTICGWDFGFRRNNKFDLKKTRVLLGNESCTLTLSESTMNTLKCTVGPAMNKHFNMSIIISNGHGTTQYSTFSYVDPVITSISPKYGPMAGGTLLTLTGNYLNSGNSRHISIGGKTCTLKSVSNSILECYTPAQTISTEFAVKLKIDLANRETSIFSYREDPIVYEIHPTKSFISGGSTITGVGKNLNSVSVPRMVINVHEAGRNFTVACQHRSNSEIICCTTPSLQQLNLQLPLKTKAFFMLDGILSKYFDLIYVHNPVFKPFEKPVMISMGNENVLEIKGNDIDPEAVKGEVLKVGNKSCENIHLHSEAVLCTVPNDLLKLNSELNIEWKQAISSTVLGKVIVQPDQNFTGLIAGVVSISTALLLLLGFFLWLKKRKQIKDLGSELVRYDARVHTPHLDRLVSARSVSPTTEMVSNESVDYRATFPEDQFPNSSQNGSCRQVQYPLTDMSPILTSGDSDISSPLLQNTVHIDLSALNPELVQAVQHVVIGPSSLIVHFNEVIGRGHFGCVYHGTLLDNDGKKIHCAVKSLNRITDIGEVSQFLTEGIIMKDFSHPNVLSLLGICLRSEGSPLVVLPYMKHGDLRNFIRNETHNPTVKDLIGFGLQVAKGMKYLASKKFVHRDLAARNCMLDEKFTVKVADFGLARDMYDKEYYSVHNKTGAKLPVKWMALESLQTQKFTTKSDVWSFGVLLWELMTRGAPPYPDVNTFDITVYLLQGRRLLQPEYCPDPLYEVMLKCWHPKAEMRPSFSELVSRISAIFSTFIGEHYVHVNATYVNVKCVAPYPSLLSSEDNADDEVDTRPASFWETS
The target of the next assay is 14) PDGFRA (PDGFRα) (h) (Homo sapiens, UniProt P16234). Put plainly: biochemical. To be noted: read-out: Kinase inhibition (%) ^a / 10 µM / −4. Details: Radiometric kinase activity assay, percent inhibition, Eurofins Cerep. The protocol:
as §2

A further assay concerns the target 15) PDGFRB (PDGFRβ) (h) (Homo sapiens, UniProt P09619). Briefly: biochemical. Details: Radiometric kinase activity assay, percent inhibition, Eurofins Cerep. Here is the method: as §2
A further assay has as its target 16) RET(h) (Homo sapiens, UniProt P07949). Put plainly: biochemical. The arrangement: Radiometric kinase activity assay, percent inhibition, Eurofins Cerep. To be noted: read-out: Kinase inhibition (%) ^a / 10 µM / −4. The protocol: as §2
The target of a further assay is 17) MST1R (RON) (h) (Homo sapiens, UniProt Q04912). Put plainly: biochemical. The arrangement: Radiometric kinase activity assay, percent inhibition, Eurofins Cerep. The following applies: read-out: Kinase inhibition (%) ^a / 10 µM / −4. The protocol:
as §2

The target of a further assay is 18) ROS1 (Homo sapiens, UniProt P08922). Put plainly: biochemical. Details: Radiometric kinase activity assay, percent inhibition, Eurofins Cerep. To be noted: read-out: Kinase inhibition (%) ^a / 10 µM / −4. Here is the method:
as §2

The next assay deals with 19) NTRK1 (TRKA) (h) (Homo sapiens, UniProt P04629). Briefly: biochemical. The arrangement: Radiometric kinase activity assay, percent inhibition, Eurofins Cerep. The following applies: read-out: Kinase inhibition (%) ^a / 10 µM / −4. The protocol: as §2
Another assay addresses 2) ALK(h) (Homo sapiens, UniProt Q9UM73). Put plainly: biochemical. To be noted: read-out: Kinase inhibition (%) ^a / 10 µM. The arrangement: Radiometric kinase activity assay, percent inhibition, Eurofins Cerep. Here is the method:
as §2

In the next assay the target is 3) AXL(h) (Homo sapiens, UniProt P30530). Briefly: biochemical. The arrangement: Radiometric kinase activity assay, percent inhibition, Eurofins Cerep. To be noted: read-out: Kinase inhibition (%) ^a / 10 µM. Here is the method: as §2
In another assay the target is 4) KIT (c-Kit) (h) (Homo sapiens, UniProt P10721). Put plainly: biochemical. The arrangement: Radiometric kinase activity assay, percent inhibition, Eurofins Cerep. To be noted: read-out: Kinase inhibition (%) ^a / 10 µM. Here is the method: as §2
The next assay has as its target 5) EGFR(h) (Homo sapiens, UniProt P00533). Put plainly: biochemical. To be noted: read-out: Kinase inhibition (%) ^a / 10 µM. Details: Radiometric kinase activity assay, percent inhibition, Eurofins Cerep. Here is the method:
as §2

A further assay addresses 6) FGFR1(h) (Homo sapiens, UniProt P11362). Put plainly: biochemical. Details: Radiometric kinase activity assay, percent inhibition, Eurofins Cerep. The following applies: read-out: Kinase inhibition (%) ^a / 10 µM. The protocol:
as §2

Another assay addresses 7) FLT1 (VEGFR1) (h) (Homo sapiens, UniProt P17948). Briefly: biochemical. Details: Radiometric kinase activity assay, percent inhibition, Eurofins Cerep. The following applies: read-out: Kinase inhibition (%) ^a / 10 µM. The protocol:
as §2

The next assay has as its target 8) FLT3 (h) (Homo sapiens, UniProt P36888). Put plainly: biochemical. The arrangement: Radiometric kinase activity assay, percent inhibition, Eurofins Cerep. The protocol: as §2
A further assay has as its target 9) FLT4 (VEGFR3) (Homo sapiens, UniProt P35916). Put plainly: biochemical. To be noted: read-out: Kinase inhibition (%) ^a / 10 µM. The arrangement: Radiometric kinase activity assay, percent inhibition, Eurofins Cerep. Here is the method: as §2
The next assay has as its target MAPK1(m) (ERK2) (Mus musculus, UniProt P63085). Briefly: biochemical. The arrangement: Radiometric kinase activity assay, percent inhibition, Eurofins Cerep. The following applies: read-out: Kinase inhibition (%) ^a / 10 µM / −4. Here is the method: as §2
Setting [1] is: read-out: Kinase inhibition (%) ^a / 10 µM / −4.
Setting [2] is: read-out: Kinase inhibition (%) ^a / 25 µM.

The structures appear in SMILES notation.

8) FLT3 (h), sequence (P36888 whole entry): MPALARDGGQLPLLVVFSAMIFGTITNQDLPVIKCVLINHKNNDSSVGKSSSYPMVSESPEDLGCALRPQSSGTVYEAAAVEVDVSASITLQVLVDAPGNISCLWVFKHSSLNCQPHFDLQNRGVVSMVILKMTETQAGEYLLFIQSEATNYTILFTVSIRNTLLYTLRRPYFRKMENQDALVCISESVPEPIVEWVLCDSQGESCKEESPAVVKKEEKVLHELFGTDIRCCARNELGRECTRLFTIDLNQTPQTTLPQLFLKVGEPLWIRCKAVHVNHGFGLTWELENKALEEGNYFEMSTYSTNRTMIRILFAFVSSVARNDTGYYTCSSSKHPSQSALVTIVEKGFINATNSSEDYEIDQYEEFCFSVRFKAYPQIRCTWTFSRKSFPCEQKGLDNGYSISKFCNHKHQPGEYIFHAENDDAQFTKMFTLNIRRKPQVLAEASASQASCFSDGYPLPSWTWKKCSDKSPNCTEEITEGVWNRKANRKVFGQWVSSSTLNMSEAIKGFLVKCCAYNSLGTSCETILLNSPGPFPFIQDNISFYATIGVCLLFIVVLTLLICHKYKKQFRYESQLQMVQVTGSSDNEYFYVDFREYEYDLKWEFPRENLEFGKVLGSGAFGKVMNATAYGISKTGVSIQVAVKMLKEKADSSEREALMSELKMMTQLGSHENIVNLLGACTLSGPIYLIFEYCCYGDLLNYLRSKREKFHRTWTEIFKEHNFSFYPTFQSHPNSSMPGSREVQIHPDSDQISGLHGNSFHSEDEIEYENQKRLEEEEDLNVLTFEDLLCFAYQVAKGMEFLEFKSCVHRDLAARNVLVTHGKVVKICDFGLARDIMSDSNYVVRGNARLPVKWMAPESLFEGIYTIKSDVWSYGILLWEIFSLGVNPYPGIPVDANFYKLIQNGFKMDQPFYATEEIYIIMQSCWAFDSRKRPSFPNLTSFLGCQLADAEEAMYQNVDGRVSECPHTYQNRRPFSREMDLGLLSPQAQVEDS
15) PDGFRB (PDGFRβ) (h), sequence (P09619 whole entry): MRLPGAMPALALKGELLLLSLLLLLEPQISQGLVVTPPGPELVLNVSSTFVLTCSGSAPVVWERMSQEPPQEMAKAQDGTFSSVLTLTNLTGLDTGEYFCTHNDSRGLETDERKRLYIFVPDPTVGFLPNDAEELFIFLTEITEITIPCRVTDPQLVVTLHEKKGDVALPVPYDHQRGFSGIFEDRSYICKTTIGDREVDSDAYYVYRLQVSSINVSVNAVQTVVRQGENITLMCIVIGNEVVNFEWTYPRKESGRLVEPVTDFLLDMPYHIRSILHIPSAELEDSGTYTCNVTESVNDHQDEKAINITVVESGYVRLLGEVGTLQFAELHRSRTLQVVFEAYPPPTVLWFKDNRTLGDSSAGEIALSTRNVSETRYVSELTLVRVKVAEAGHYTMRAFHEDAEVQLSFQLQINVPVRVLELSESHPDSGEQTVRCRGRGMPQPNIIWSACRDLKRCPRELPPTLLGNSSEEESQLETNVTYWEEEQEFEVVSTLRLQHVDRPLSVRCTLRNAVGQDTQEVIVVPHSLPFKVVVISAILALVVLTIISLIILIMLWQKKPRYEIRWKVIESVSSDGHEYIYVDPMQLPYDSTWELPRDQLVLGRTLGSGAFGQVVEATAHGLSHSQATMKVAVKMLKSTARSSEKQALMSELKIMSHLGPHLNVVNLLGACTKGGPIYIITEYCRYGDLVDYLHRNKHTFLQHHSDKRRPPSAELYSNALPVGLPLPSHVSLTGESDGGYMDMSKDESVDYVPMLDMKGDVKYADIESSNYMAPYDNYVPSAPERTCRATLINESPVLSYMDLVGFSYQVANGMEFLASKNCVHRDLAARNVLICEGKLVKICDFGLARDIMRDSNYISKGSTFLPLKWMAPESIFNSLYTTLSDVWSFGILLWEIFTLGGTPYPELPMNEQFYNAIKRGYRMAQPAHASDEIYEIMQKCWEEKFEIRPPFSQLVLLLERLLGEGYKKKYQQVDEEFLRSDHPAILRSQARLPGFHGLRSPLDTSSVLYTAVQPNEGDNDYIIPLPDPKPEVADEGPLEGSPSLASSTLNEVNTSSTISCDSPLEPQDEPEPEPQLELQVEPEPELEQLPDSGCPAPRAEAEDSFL
11) MAPK3 (ERK1) (h), sequence (P27361 whole entry): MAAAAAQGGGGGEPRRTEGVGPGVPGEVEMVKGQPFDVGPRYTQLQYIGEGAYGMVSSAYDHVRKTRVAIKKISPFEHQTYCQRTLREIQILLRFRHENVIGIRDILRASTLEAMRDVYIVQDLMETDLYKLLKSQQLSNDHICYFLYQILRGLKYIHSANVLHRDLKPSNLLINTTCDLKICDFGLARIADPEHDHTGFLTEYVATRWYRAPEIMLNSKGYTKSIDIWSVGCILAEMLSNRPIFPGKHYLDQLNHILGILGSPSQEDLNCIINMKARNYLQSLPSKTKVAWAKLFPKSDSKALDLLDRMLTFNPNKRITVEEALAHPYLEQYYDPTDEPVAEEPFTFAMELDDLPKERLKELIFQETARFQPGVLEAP
14) PDGFRA (PDGFRα) (h), sequence (P16234 whole entry): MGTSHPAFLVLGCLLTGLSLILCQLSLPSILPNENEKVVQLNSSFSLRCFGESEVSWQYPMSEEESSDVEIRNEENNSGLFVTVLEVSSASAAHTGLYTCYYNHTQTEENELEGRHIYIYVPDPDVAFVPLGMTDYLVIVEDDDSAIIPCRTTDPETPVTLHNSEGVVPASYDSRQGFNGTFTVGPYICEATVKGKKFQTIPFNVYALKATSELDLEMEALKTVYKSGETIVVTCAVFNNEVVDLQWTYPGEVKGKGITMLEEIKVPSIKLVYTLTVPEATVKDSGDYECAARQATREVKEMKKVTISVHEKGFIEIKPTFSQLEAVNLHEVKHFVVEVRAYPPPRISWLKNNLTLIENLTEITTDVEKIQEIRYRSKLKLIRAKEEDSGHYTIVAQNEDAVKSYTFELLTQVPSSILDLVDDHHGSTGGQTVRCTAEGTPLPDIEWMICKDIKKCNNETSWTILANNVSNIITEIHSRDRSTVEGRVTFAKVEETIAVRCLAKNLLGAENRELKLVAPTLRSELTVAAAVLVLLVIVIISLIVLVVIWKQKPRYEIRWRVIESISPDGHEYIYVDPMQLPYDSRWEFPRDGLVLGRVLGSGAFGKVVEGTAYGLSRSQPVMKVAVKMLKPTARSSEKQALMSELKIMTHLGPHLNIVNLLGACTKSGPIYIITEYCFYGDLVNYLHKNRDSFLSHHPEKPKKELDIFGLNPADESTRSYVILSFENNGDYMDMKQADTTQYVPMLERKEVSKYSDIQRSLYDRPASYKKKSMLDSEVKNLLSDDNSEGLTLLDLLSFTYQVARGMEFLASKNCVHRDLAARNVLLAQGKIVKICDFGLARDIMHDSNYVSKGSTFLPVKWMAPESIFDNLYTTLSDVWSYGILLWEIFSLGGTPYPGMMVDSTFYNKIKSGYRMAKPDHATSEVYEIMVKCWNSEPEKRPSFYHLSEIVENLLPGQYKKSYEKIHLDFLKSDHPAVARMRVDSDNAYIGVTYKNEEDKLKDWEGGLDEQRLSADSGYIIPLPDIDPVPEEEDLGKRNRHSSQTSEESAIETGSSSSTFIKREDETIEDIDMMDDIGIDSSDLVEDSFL

As to `Cn1c(N/N=C/c2ccc(OCc3cn(Cc4ccc([N+](=O)[O-])cc4)nn3)cc2)nc2ccccc2c1=O` [CM1], the IC50 in the assay with A549, in the assay on EBC-1, in the assay with HT-29 and in the assay with U-87MG was above 100 µM throughout.
On to `Cc1ccc(Cn2cc(COc3ccc(/C=N/Nc4nc5ccccc5c(=O)n4C)cc3)nn2)cc1` [CM2], for which the IC50 with A549, with EBC-1, in the assay with HT-29 and in the assay on U-87MG was above 100 µM throughout.
Regarding `Cn1c(N/N=C/c2ccc(OCc3cn(Cc4ccc(C(C)(C)C)cc4)nn3)cc2)nc2ccccc2c1=O` [CM3], the IC50 was above 100 µM in the assay on A549, above 100 µM in the assay with EBC-1, 56.4 ± 14.5 µM in the assay with HT-29 and above 100 µM in the assay with U-87MG.
As to `Cn1c(N/N=C/c2ccc(OCc3cn(Cc4ccc(F)cc4)nn3)cc2)nc2ccccc2c1=O` [CM4], the IC50 with A549 was above 100 µM; in the assay with EBC-1 it was 36.2 ± 10.8 µM; in the assay with HT-29 it was 27.8 ± 5.1 µM; with U-87MG it was 67.1 ± 6.2 µM.
Consider `Cn1c(N/N=C/c2ccc(OCc3cn(Cc4ccc(Cl)cc4)nn3)cc2)nc2ccccc2c1=O` [CM5], for which the IC50 with A549, in the assay with EBC-1, in the assay on HT-29 and with U-87MG was above 100 µM throughout.
Consider `Cn1c(N/N=C/c2ccc(OCc3cn(Cc4ccccc4)nn3)cc2)nc2ccccc2c1=O` [CM6], for which the IC50 in the assay with A549 is above 100 µM; in the assay on EBC-1, 32.5 ± 6.8 µM; in the assay on HT-29, above 100 µM; in the assay with U-87MG, above 100 µM.
Take `Cn1c(N/N=C/c2ccc(OCc3cn(Cc4ccc(Cl)c(Cl)c4)nn3)cc2)nc2ccccc2c1=O` [CM8]: the IC50 in the assay with A549 worked out at 34.5 ± 2.2 µM; in the assay on EBC-1 it was 22.4 ± 6 µM; with HT-29, 47.8 ± 6.7 µM; with U-87MG, 51.1 ± 7.6 µM.
Consider `Cn1c(N/N=C/c2ccc(OCc3cn(Cc4ccc(Br)cc4)nn3)cc2)nc2ccccc2c1=O` [CM9, (E)-2-(2-(4-((1-(4-bromobenzyl)-1H-1,2,3-triazol-4-yl)methoxy)benzylidene)hydrazinyl)-3-methylquinazolin-4(3H)-one], for which the inhibition at 25 µM on AXL was found to be 65%; on FLT1 (VEGFR1) it was 82%; at FGFR1, 66%; at ALK, 51%; at 13) MET(h) (setting [2]) it was 58%; on 15) PDGFRB (PDGFRβ) (h) (setting [2]), 10%. Moreover, the inhibition at 25 µM on 8) FLT3 (h) (setting [2]) turned out to be 47%. The IC50 at FLT4 (VEGFR3) turned out to be 5.01 µM; against MET kinase, 22.8 ± 3.9 µM; in the assay with A549, 64.9 ± 2.9 µM; in the assay on EBC-1, 8.6 ± 1.9 µM; in the assay on HT-29, 65.2 ± 15.4 µM; in the assay with U-87MG, 24.6 ± 2.6 µM. Further, the inhibition at 10 µM was 14% on 1) ABL1(h); 0% at 10) KDR (VEGFR2) (h); -4% on 11) MAPK3 (ERK1) (h); 27% at 13) MET(h) (setting [1]); 5% on 14) PDGFRA (PDGFRα) (h); 23% at 15) PDGFRB (PDGFRβ) (h) (setting [1]). In addition, the inhibition at 10 µM is -12% at 16) RET(h); 5% at 17) MST1R (RON) (h); -25% at 18) ROS1; 4% at 19) NTRK1 (TRKA) (h); 25% at 2) ALK(h); 28% at 3) AXL(h). Moreover, the inhibition at 10 µM at 4) KIT (c-Kit) (h) is 0%; at 5) EGFR(h) it was -2%; on 6) FGFR1(h), 39%; at 7) FLT1 (VEGFR1) (h), 22%; on 8) FLT3 (h) (read-out: Kinase inhibition (%) ^a / 10 µM), 24%; at 9) FLT4 (VEGFR3) it was 86%. In addition, the inhibition at 10 µM on MAPK1(m) (ERK2) was determined as 3%.

The values above are taken from article PMC9713320, “Study of the anticancer effect of new quinazolinone hydrazine derivatives as receptor tyrosine kinase inhibitors” (Frontiers in Chemistry, 2022).
